This is an account of results in US20230190705A1, “DRUG COMBINATION FOR TREATING DIABETES MELLITUS AND COMPLICATIONS THEREOF AND PHARMACEUTICAL COMPOSITION OF DRUG COMBINATION” (Chengdu Chipscreen Pharmaceutical Ltd., priority 2020, published 2023).

The test system of data set [1] is db/db male mice. Nature of the data set: Body weight and fasting blood glucose, chiglitazar sodium with empagliflozin (Example 1). The class given is in vivo. Particulars: oral once a day for 14 days, 10 mg/kg chiglitazar sodium, 3 mg/kg empagliflozin or both, FIG. 1; for fasting blood glucose: 4-6 hours of fasting. The protocol:
Experimental design: the effects on body weight and blood glucose of single and combined medication were investigated, by oral administration of chiglitazar sodium, empagliflozin, or a combination thereof to mice.
(§1) Experimental procedure: 6-Week-old db/db male mice were orally administered once a day with 100 µL of vehicle (0.1% sodium carboxymethylcellulose), 10 mg/kg chiglitazar sodium, 3 mg/kg empagliflozin, or a combination of chiglitazar sodium and empagliflozin at the same doses simultaneously, respectively, according to body weight. Wild-type C57BLKS/Jnju mice were used as normal control (administered with the vehicle). The period of administration was 14 days, and the animals were treated and dissected on Day 15. Starting from the administration, the mice were subjected to weighing and measurement of fasting blood glucose (4-6 hours of fasting) every 3 days.

Data set [2] has as its system db/db male mice. Nature of the data set: Body weight and fasting blood glucose, chiglitazar sodium with dapagliflozin (Example 2). The class given is in vivo. The conditions noted are these: oral once a day for 14 days, 10 mg/kg chiglitazar sodium, 1.5 mg/kg dapagliflozin or both, FIG. 2. The protocol:
Experimental design: the effects on body weight and blood glucose of single and combined medication were investigated, by oral administration of chiglitazar sodium, dapagliflozin, or a combination thereof to mice.
Wild-type C57BLKS/Jnju mice were used as normal control (administered with vehicle). The period of administration was 14 days, and the animals were treated and dissected on Day 15. Starting from the administration, the mice were subjected to weighing and measurement of fasting blood glucose (4-6 hours of fasting) every 3 days.

Data set [3] relates to db/db male mice. Nature of the data set: Blood lipids (serum TC and TG), chiglitazar sodium with empagliflozin (Example 3). The data set is classed as in vivo. Particulars: oral once a day for 14 days, serum on Day 15, 10 mg/kg chiglitazar sodium, 3 mg/kg empagliflozin or both, FIG. 3. The protocol: Experimental design: the effects on total cholesterol (TC) and triglyceride (TG) in mouse serum of single and combined medication were investigated, by oral administration of chiglitazar sodium, empagliflozin, or a combination thereof to diabetic mice.
as §1, with “with” for “with the”, “Whole blood was collected, serum was centrifuged and serum TC and TG” for “Starting from the administration, the mice”, “measured by biochemical analyzer.” for “subjected to weighing and measurement of fasting blood glucose (4-6 hours of fasting) every 3 days.”

Data set [4] deals with db/db male mice. Nature of the data set: Blood lipids (serum TC and TG), chiglitazar sodium with dapagliflozin (Example 4). The class given is in vivo. Particulars: oral once a day for 14 days, serum on Day 15, 10 mg/kg chiglitazar sodium, 1.5 mg/kg dapagliflozin or both, FIG. 4. On the procedure:
Experimental design: the effects on total cholesterol (TC) and triglyceride (TG) in mouse serum of single and combined medication were investigated, by oral administration of chiglitazar sodium, dapagliflozin, or a combination thereof to diabetic mice.
Wild-type C57BLKS/Jnju mice were used as normal control (administered with vehicle). The period of administration was 14 days, and the animals were treated and dissected on Day 15. Whole blood was collected, serum was centrifuged and serum TC and TG were measured by biochemical analyzer.

The next data set relates to diabetic patients. Particulars: clinical studies; cited from earlier work.

On to `O=C(c1ccc(F)cc1)c1ccccc1NC(Cc1ccc(OCCn2c3ccccc3c3ccccc32)cc1)C(=O)O` (stereo not shown) [chiglitazar sodium], for which the fasting blood glucose entry in the data set on db/db male mice [1] and in the data set with db/db male mice [2] (4-6 hours of fasting) was “could reduce blood glucose to a certain extent” throughout. Also, the body weight result in the data set with db/db male mice [1] and in the data set with db/db male mice [2] was “weight gain” throughout. Further, the “serum total cholesterol (TC)” value in the data set with db/db male mice [3] was “could reduce the serum total cholesterol and triglyceride levels to a certain extent”; in the data set on db/db male mice [4], “could reduce the serum total cholesterol and triglyceride levels to a certain extent”. The “serum triglyceride (TG)” value is “could reduce the serum total cholesterol and triglyceride levels to a certain extent” with db/db male mice [3]; “could reduce the serum total cholesterol and triglyceride levels to a certain extent” in the data set with db/db male mice [4]. In the data set on diabetic patients, the “efficacy on blood glucose and lipids in diabetic patients” value was “has efficacy in reducing blood glucose and improving lipids in diabetic patients”. The “weight gain effect in diabetic patients” value in the data set on diabetic patients is “having certain weight gain effect”.

As to `OC[C@H]1O[C@@H](c2ccc(Cl)c(Cc3ccc(O[C@H]4CCOC4)cc3)c2)[C@H](O)[C@@H](O)[C@@H]1O` [empagliflozin, reference compound], in the data set on db/db male mice [1], the fasting blood glucose entry is recorded as “could reduce blood glucose to a certain extent”. In the data set on db/db male mice [3], the “serum total cholesterol (TC)” value is “could reduce the serum total cholesterol and triglyceride levels to a certain extent”; the “serum triglyceride (TG)” value was “could reduce the serum total cholesterol and triglyceride levels to a certain extent”.
